# In patent publication US20080139536A1, “Benzodiazepines for Treating or Preventing Rsv Infection” (Novartis Pharmaceuticals Corporation, priority 2004, published 2008):
# Legend:
# [1] = test system: Hep-2 cells; assay: Cell toxicity: crystal violet staining and microscopic examination of monolayers; type: cell-based; conditions: Hep-2 monolayers of the assay plates, crystal violet stain, indications of cell toxicity; compounds tested 50 μM-0.78 μM
# Description: (§1) All 96 wells of a microtitre plate were seeded at a density of 4×10^3 Hep-2 cells/well in 100 μl/well of Growth Medium (GM) consisting of Dulbecco's MEM (DMEM) with Glutamax-1, Sodium Pyruvate, 1000 mg/l glucose and pyridoxine (Invitrogen, catalogue number 21885-025) and supplemented with 10% FBS. (See Plate 1).
# (§2) Six compounds were tested on each assay plate as illustrated below. (See Plate 3). Compounds were tested in duplicate wells across a 7-point dilution series (from 50 μM-0.78 μM): in the presence of virus.
# The wells were emptied, washed in tap water and the monolayers stained with 50 μl/well of 2% crystal violet in 20% methanol/water for at least 1 hour. The wells were then washed and air-dried and the monolayers examined under the microscope for indications of cell toxicity.
# [2] = test system: RSV (RSS strain); assay: RSV ELISA antigen reduction assay in Hep-2 cells; type: cell-based, Respiratory Syncytial Virus; conditions: RSV-infected Hep-2 cells, 3 day assay, ELISA OD 490 nm, 7-point dilution 50 μM-0.78 μM
# Description: This was quantified by optical density (OD) measurement.
# This assay was set up using all 96 wells of flat-bottomed 96-well plates. The outer wells were not subjected to any greater amount of evaporation than the inner wells during the 3 day assay period. (i.e. No “edge effect” seen).
# Plates were set up one day before addition of virus and compounds. The assay then ran for 3 days with ELISA development taking place on the 4th day.
# as §1
# A frozen vial of RSV (RSS strain provided by Virogen Ltd) stock solution was removed from the −80 freezer or liquid nitrogen store and diluted to a known Multiplicity of Infection (m.o.i) in Growth Medium.
# The m.o.i. was calculated by prior titration of the virus stock (by the ELISA assay method) as the virus input required to achieve a window of at least 0.8 OD units between infected and uninfected control wells.
# 50 μl of diluted virus was added to infected, “virus+”, wells by multichannel pipette; 50 μl of Growth Medium was added to uninfected, cell control wells (CC) by multichannel pipette. (See Plate 2)
# Plates were incubated at 37° C. for 1 hr to allow virus adsorption.
# Compounds were made up at 4× strength in GM containing 2% DMSO (a final DMSO concentration in the assay of 0.5%).
# as §2
# Virus infected, untreated wells served as the virus control (VC); Uninfected, untreated wells serve as the cell control (CC). The difference in absorbance between CC and VC wells constitutes the assay window.
# 200 μl of GM containing 2% DMSO was added to all wells except the ‘50 μM’ or first column, to which 392 μl of GM was added. 8 μl of each test compound was cherry-picked from a thawed Arrow screening plate and transferred to the appropriate well in the ‘50 μM’ column. Since the compound stock was at 10 mM in 100% DMSO, this will maintain the DMSO level at 2% at the top compound concentration.
# Using a multichannel pipette, 200 μl was transferred from the 50 μM column to the 25 μM column, then to the 12.5 μM column and so on across the dilution plate creating a serial doubling dilution. Compounds were mixed upon transfer and tips changed between transfers, ensuring also that no compound was transferred to the last column of compound-free wells (0 μM).
# The dilution plate was turned lengthways and 50 μl of compound easily transferred by multichannel pipette from the dilution plate to the assay plate, column by column. There was therefore an excess of 100 μl remaining in the dilution plate.
# Plates were incubated at 37° C., 5% CO2 for 3 days.
# Media was tapped out from wells directly into Virkon (1% solution in water) and plates were washed by immersing in a plastic box containing PBS. 50 μl/well of 75%/25% vol/vol acetone/methanol fixative was added by multichannel pipette and left for 3 mins.
# Some 200 μl of blocking solution (2% Marvel in PBS containing 0.05% Tween) was added per well by multichannel pipette. Plates were incubated at 37° C. in a shaking incubator for 60 mins.
# RSV mouse monoclonal antibody NCL-RSV3 (Novocastra) was diluted 1/400 in PBS/2% Marvel/0.05% Tween and 50 μl was added per well. Plates were incubated at 37° C. in a shaking incubator for 90 mins.
# DAKo rabbit anti-mouse HRP conjugate (DAKO catalogue number P0260) was diluted 1/1000 in PBS/2% Marvel/0.05% Tween and 50 μl was added per well. Plates were incubated at 37° C. in a shaking incubator for 60 mins.
# Substrate (SigmaFast OPD) was prepared in advance by dissolving 1 urea tablet in 20 mL water. […]
# [3] = human respiratory syncytial virus, 72 h
SMILES,TD50 [1],"IC50 [2, 3]",IC50 [2]
"O=C(N[C@H]1N=C(c2ccccc2)c2ccccc2NC1=O)c1cc(F)ccc1N1CCS(=O)(=O)CC1 [Example 7, (S)-2-(1,1-Dioxo-1λ6-thiomorpholin-4-yl)-5-fluoro-N-(2-oxo-5-phenyl-2,3-dihydro-1H-benzo[e][1,4]diazepin-3-yl)-benzamide]",Tr50,< 5 µM,–
O=C(N[C@H]1N=C(c2ccccc2)c2ccccc2NC1=O)c1ccc(F)cc1[N+]1([O-])CCS(=O)(=O)CC1 [Example 5],Tr25,–,< 5 µM
"N#Cc1ccc(C(=O)N[C@H]2N=C(c3ccccc3)c3ccccc3NC2=O)c(N2CCCC2)c1 [Example 14, (S)-4-Cyano-N-(2-oxo-5-phenyl-2,3-dihydro-1H-benzo[e][1,4]diazepin-3-yl)-2-pyrrolidin-1-yl-benzamide]",Tr50,< 5 µM,–
